Converted amounts (≈) assume the structure as drawn.
Key:
Myriophyllum spicatum = conditions: acute; growth
Daphnia magna = conditions: chronic/long-term; reproduction
Pleurozium sp. = conditions: acute; growth
Bibionidae = conditions: chronic/long-term; growth
Tagia sp. = conditions: chronic/long-term; duration: 56 days; reproduction
Danio rerio = conditions: chronic; growth
Apis mellifera = conditions: acute, duration: 48 hours, mortality
Cyprinus carpio = conditions: acute; mortality
Hypoaspis aculeifer = conditions: chronic/long-term; duration: 14 days; mortality
Folsomia candida = conditions: chronic/long-term; duration: 28 days; mortality
Canidae = conditions: subchronic; duration: 90 days; oral; Dog Other; organ weight
Anas platyrhynchos = conditions: acute; oral; unspecified; mortality
Typhlodromus pyri = assay: LR50; higher = less toxic; conditions: not reported; mortality

CCOC1Oc2ccc(OS(C)(=O)=O)cc2C1(C)C (centres undefined) [Ethofumesate]
NOEC (Myriophyllum spicatum): 0.25 mg/L | NOEC (Daphnia magna): 0.25 mg/L | LD50 (Colinus virginianus; acute, oral, mortality): 3780 mg/kg-day | NOEL (Colinus virginianus; reproduction developmental): 265 mg/kg-day | NOEC (Pleurozium sp.): 9.68 mg/L | NOEC (Bibionidae): 3.82 mg/L | LD50 (Rattus norvegicus; acute, oral, mortality): > 5000 mg/kg-day | NOAEL (Rattus norvegicus; chronic, duration: 2 years, oral, F, organ weight): 101 mg/kg-day | NOAEL (Rattus norvegicus; reproduction developmental, body weight): 60.9 mg/kg-day | NOEC (Tagia sp.): 12.5 mg/kg | NOEC (Danio rerio): 0.156 mg/L | LD50 (Apis mellifera; dermal): > 50 µg/piece | LD50 (Apis mellifera; oral, unspecified): > 50 µg/piece | LC50 (Cyprinus carpio): 10.9 µg/mL (≈ 38.1 µM) | NOEC (Hypoaspis aculeifer): 22.1 mg/kg | NOEC (Folsomia candida): 13.3 mg/kg | NOAEL (Canidae): 250 mg/kg-day | LD50 (Anas platyrhynchos): 3780 mg/kg-day | LR50 (Typhlodromus pyri): > 1000 g/ha
